Data reported in ChEMBL document CHEMBL1201862, “PubChem BioAssay data set” (2004).
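Method: 48-hour compound exposure of cells in 96-well plates, five concentrations, linear interpolation of endpoints. The concentration for 50% growth inhibition is given as GI50.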 Activity calls are given as the source filed them. No stated cut-off is given here; in the data, active = GI50 up to about 1.1 µM and inactive = higher.

What was measured:
Assay in all cases: DTP human tumour cell line panel, 48 h
SK-MEL-5 = tested on: SK-MEL-5
SW-620 = tested on: SW-620
SK-MEL-2 = tested on: SK-MEL-2
TK-10 = tested on: TK-10
SNB-19 = tested on: SNB-19
NCI-H460 = tested on: NCI-H460
NCI-H522 = tested on: NCI-H522
OVCAR-3 = tested on: OVCAR-3
CCRF-CEM = tested on: CCRF-CEM
Malme-3M = tested on: Malme-3M
K562 = tested on: K562
ACHN = tested on: ACHN
HCT-116 = tested on: HCT-116
LOX IMVI = tested on: LOX IMVI
RXF 393 = tested on: RXF 393
COLO 205 = tested on: COLO 205
SK-OV-3 = tested on: SK-OV-3
HL-60 = tested on: HL-60

Measured: GI50

COc1cccc(Cc2c3cc(OC)ccc3cc[n+]2C)c1
inactive: SK-MEL-5 22.4 µM | SW-620 > 100 µM | SK-MEL-2 72.6 µM | TK-10 > 100 µM | SNB-19 43.1 µM | NCI-H460 > 100 µM | NCI-H522 22.9 µM | OVCAR-3 47.5 µM | CCRF-CEM 87.3 µM | Malme-3M > 100 µM | K562 36 µM | ACHN > 100 µM

CCOC(=O)[C@H]1Nc2ccccc2C2c3ccccc3CC21 (stereo partly specified)
inactive: SK-MEL-5 21.8 µM | HCT-116 41.5 µM | LOX IMVI > 100 µM | SW-620 36.8 µM | RXF 393 3.3 µM | COLO 205 64.4 µM | SK-MEL-2 > 100 µM | TK-10 > 100 µM | SNB-19 > 100 µM | NCI-H460 38.6 µM | NCI-H522 16.4 µM | OVCAR-3 29.6 µM | Malme-3M > 100 µM | K562 38.9 µM | ACHN > 100 µM

NC(CCCC(N)P(=O)(O)O)P(=O)(O)O (stereo unspecified)
inactive: SK-MEL-5 > 100 µM | HCT-116 > 100 µM | LOX IMVI > 100 µM | SW-620 > 100 µM | RXF 393 > 100 µM | COLO 205 > 100 µM | TK-10 > 100 µM | NCI-H460 > 100 µM | NCI-H522 > 100 µM | OVCAR-3 > 100 µM | SK-OV-3 > 100 µM | CCRF-CEM > 100 µM | Malme-3M > 100 µM | K562 > 100 µM | ACHN > 100 µM

Cc1nc2ccncc2[nH]1
inactive: SK-MEL-5 > 100 µM | HCT-116 > 100 µM | LOX IMVI > 100 µM | SW-620 > 100 µM | HL-60 > 100 µM | RXF 393 > 100 µM | COLO 205 > 100 µM | SK-MEL-2 > 100 µM | TK-10 > 100 µM | SNB-19 > 100 µM | NCI-H460 > 100 µM | OVCAR-3 > 100 µM | CCRF-CEM > 100 µM | Malme-3M > 100 µM | K562 > 100 µM | ACHN > 100 µM

C=C=C[P+](c1ccccc1)(c1ccccc1)c1ccccc1
inactive: SK-MEL-5 5.86 µM | HCT-116 3.37 µM | HL-60 5.08 µM | COLO 205 2.57 µM | SK-MEL-2 10.7 µM | TK-10 26.2 µM | NCI-H460 18.2 µM | NCI-H522 2.24 µM | OVCAR-3 5.57 µM | SK-OV-3 45.6 µM | CCRF-CEM 2.94 µM | Malme-3M 13.2 µM | K562 3.4 µM | ACHN 14.5 µM

COC(=O)c1ccc(CS(=O)(=O)c2ccccc2)cc1
inactive: SK-MEL-5 55.8 µM | HCT-116 60.3 µM | LOX IMVI 74.3 µM | SW-620 45.1 µM | HL-60 76.6 µM | RXF 393 > 100 µM | COLO 205 59.4 µM | SK-MEL-2 38.5 µM | TK-10 > 100 µM | SNB-19 > 100 µM | NCI-H460 66.1 µM | OVCAR-3 > 100 µM | SK-OV-3 > 100 µM | CCRF-CEM > 100 µM | Malme-3M > 100 µM | K562 > 100 µM | ACHN > 100 µM

COc1nc(=O)n(COC(CO)CN2C(=O)c3ccccc3C2=O)cc1Cc1cccc(OCc2ccccc2)c1 (stereo unspecified)
inactive: SK-MEL-5 15.7 µM | HCT-116 29.4 µM | LOX IMVI 20.1 µM | SW-620 42.7 µM | HL-60 21.1 µM | COLO 205 19.8 µM | SK-MEL-2 15.4 µM | TK-10 27 µM | SNB-19 29.6 µM | OVCAR-3 21.9 µM | SK-OV-3 26.5 µM | CCRF-CEM 24.1 µM | K562 24.9 µM | ACHN 23.7 µM

COc1ccc(C2=NN(c3ccccc3)C[N+](c3ccc(OC)cc3)=N2)cc1
inactive: SK-MEL-5 14.7 µM | HCT-116 33.7 µM | LOX IMVI 17.6 µM | SW-620 24.5 µM | HL-60 24 µM | RXF 393 26 µM | COLO 205 > 10 µM | TK-10 42.4 µM | SNB-19 28.4 µM | NCI-H460 47.5 µM | NCI-H522 15.1 µM | OVCAR-3 22 µM | CCRF-CEM 23.2 µM | Malme-3M 21.2 µM | K562 19.2 µM | ACHN 30.3 µM

O=C1OC(CC(=O)c2ccc(Cl)cc2)C(Cl)=C1Cl (stereo unspecified)
inactive: SK-MEL-5 > 100 µM | HCT-116 > 100 µM | SW-620 > 100 µM | HL-60 26 µM | COLO 205 > 100 µM | SK-MEL-2 > 100 µM | TK-10 > 100 µM | SNB-19 > 100 µM | NCI-H460 > 100 µM | NCI-H522 94.8 µM | OVCAR-3 > 100 µM | SK-OV-3 > 100 µM | CCRF-CEM 35.6 µM | Malme-3M > 100 µM | K562 54.6 µM | ACHN > 100 µM

CC12CCC(=O)N1[C@@H](c1ccccc1)[C@@H](c1ccccc1)O2 (stereo partly specified)
inactive: SK-MEL-5 > 100 µM | HCT-116 > 100 µM | LOX IMVI > 100 µM | SW-620 > 100 µM | HL-60 > 100 µM | COLO 205 > 100 µM | SK-MEL-2 > 100 µM | SNB-19 > 100 µM | NCI-H460 > 100 µM | NCI-H522 > 100 µM | OVCAR-3 > 100 µM | SK-OV-3 68.9 µM | CCRF-CEM > 100 µM | Malme-3M > 100 µM | K562 > 100 µM | ACHN > 100 µM

CCOC(=O)Cn1c(=O)n(C)c(=O)c2[nH]cnc21
inactive: SK-MEL-5 > 100 µM | HCT-116 > 100 µM | SW-620 > 100 µM | COLO 205 > 100 µM | SK-MEL-2 > 100 µM | TK-10 > 100 µM | SNB-19 > 100 µM | NCI-H460 > 100 µM | NCI-H522 > 100 µM | OVCAR-3 > 100 µM | SK-OV-3 > 100 µM | CCRF-CEM > 100 µM | Malme-3M > 100 µM | K562 > 100 µM | ACHN > 100 µM

COc1ccccc1/C=C1\C(=O)N(C(=O)Cc2ccccc2)N=C1C
inactive: SK-MEL-5 > 100 µM | HCT-116 > 100 µM | LOX IMVI > 100 µM | SW-620 > 100 µM | HL-60 > 100 µM | COLO 205 > 100 µM | SK-MEL-2 > 100 µM | TK-10 > 100 µM | SNB-19 > 100 µM | NCI-H460 > 100 µM | NCI-H522 > 100 µM | OVCAR-3 > 100 µM | CCRF-CEM > 100 µM | Malme-3M > 100 µM | K562 > 100 µM | ACHN > 100 µM

COc1ccc(/C(=N/NC(N)=O)C2(O)C(=O)Nc3ccc([N+](=O)[O-])cc32)cc1 (stereo unspecified)
inactive: SK-MEL-5 27.3 µM | HCT-116 14.9 µM | SW-620 22.8 µM | COLO 205 23 µM | SK-MEL-2 21.6 µM | SNB-19 > 10 µM | NCI-H460 19.3 µM | NCI-H522 21.8 µM | OVCAR-3 18.1 µM | SK-OV-3 > 100 µM | CCRF-CEM 11.6 µM | Malme-3M > 10 µM | K562 22 µM | ACHN 16.6 µM
